“Also recorded” adds a separate entry of the source. Read-outs that look alike come from different tables or passages of the source. Marks after values point to notes of the source that are not given here.
What was measured:
D3R [1] = target: T1, D3R (Homo sapiens, UniProt P35462); parameters: method as in PMID 24061855, PMID 19331412; settings: R22 analogues, linker length; cited from earlier work
D1R [2] = target: T2, D1R (Homo sapiens, UniProt P21728); test: HTRF competitive binding screening (NDF) at D1R carrier cells; settings: 10 µM, n = 4, fluorescence decrease normalized to the control
T2 sequence (P21728 whole entry): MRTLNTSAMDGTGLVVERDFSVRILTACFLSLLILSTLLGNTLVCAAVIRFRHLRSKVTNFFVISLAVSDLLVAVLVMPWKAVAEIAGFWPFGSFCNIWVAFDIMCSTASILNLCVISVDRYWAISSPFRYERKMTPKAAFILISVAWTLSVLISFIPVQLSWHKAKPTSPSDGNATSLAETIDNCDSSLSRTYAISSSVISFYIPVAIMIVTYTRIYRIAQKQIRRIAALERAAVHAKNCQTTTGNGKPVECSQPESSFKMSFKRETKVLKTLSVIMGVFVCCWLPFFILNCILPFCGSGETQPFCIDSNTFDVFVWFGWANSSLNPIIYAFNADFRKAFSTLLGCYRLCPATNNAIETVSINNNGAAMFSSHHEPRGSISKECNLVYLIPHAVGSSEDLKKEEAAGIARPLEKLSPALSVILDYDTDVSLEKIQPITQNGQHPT
Procedure: (§1) All HTRF assays were performed using an HTRF-compatible plate reader (model Tecan Spark (Tecan Group, Männedorf, Switzerland)). The respective settings were specifically modified and optimized for the determination of D2R ligand-binding affinities. Binding affinities were determined using the same settings for measurements with D1R and D3R carrier cells. […] Fluorophores were excited at 320 nm. A dichroic 510 mirror was used, while lag and integration times of 100 and 400 µs were applied, respectively. Flashes were set to 75. Electronic gain was automatically optimized, while the z-position was optimized based on the well with the highest expected signal. […] The first plate was used to determine the gain and the z-position. Subsequently, the determined values were set manually for the second plate to enable direct comparison between the different plates.
(§2) The cells used for the subsequent screening and detailed investigation of D1R and D3R ligands were acquired from PerkinElmer/cisbio (Waltham, MA, USA; Tag-lite Dopamine D1 or D3a-labeled Cells, ready-to-use (transformed and labeled), 200 tests; C1TT1D1 and C1TT1D3A, respectively). The cells were stored in liquid nitrogen until further use. Fluorescent-labelled ligands (Dopamine D2 Receptor red antagonist Fluorescent Ligand (L0002RED), stored at −20 °C and Dopamine D1 Receptor green antagonist (L0031GRE), stored at −20 °C), assay buffer (5Xconcentrate Tag-lite Buffer (TLB), 100 mL, stored at +4 °C; LABMED), and 96-well plates (HTRF 96-well low-volume white plate; 66PL96005) required for the in vitro assay were also acquired from PerkinElmer/cisbio. The assay was conducted according to the standard operation protocol (SOP) available from PerkinElmer/cisbio. The 96-well plates were incubated at room temperature for 2 h. The 96-well plates were read as described in Section 2.10. The respective concentrations of the dilution series were performed in triplicates. In total, Kd determination was performed twice.
(§3) The investigated compounds were taken from a previous pharmacophore-based virtual screening study described in Zell et al.. The activities of all compounds were investigated via a competitive binding (in comparison with a fluorescence-labeled ligand) of the respective compounds at D1R/D3R, utilizing an HTRF assay using a screening concentration of 10 µM.

D3R [3] = target: T1, D3R; test: HTRF competitive binding screening (NDF) at D3R carrier cells; settings: 10 µM, n = 4, fluorescence decrease normalized to the control
Procedure: as §1, §2, §3

D2R [4] = target: T3, D2R (Homo sapiens, UniProt P14416); settings: 10 µM, n = 4, normalized to the control; cited from earlier work
T3 construct: expressed in transfected cells; host or cells: D2R carrier cells (not described here)
T3 sequence (P14416 whole entry): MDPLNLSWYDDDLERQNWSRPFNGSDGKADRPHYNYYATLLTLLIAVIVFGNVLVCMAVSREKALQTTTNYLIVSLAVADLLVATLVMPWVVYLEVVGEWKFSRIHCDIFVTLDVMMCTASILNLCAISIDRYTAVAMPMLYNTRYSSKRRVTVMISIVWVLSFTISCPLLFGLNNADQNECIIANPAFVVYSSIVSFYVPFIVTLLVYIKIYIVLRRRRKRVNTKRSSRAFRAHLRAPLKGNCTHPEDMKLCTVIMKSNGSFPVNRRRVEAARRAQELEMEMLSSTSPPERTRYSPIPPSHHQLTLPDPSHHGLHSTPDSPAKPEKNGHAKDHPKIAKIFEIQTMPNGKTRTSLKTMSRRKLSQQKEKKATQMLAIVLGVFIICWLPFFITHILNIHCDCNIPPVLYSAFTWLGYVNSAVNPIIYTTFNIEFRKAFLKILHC

D3R [5] = target: T1, D3R; test: HTRF Ki determination at D3R; type: binding; settings: for Selectivity D1R/D3R (Ki fold-difference) / Selectivity D2R/D3R (Ki fold-difference): Ki assumed ≥100 µM where n.d.
Procedure: as §1
The cells used for the subsequent screening and detailed investigation of D1R and D3R ligands were acquired from PerkinElmer/cisbio (Waltham, MA, USA; Tag-lite Dopamine D1 or D3a-labeled Cells, ready-to-use (transformed and labeled), 200 tests; C1TT1D1 and C1TT1D3A, respectively). The cells were stored in liquid nitrogen until further use. […] The assay was conducted according to the standard operation protocol (SOP) available from PerkinElmer/cisbio. The 96-well plates were incubated at room temperature for 2 h. The 96-well plates were read as described in Section 2.10. The respective concentrations of the dilution series were performed in triplicates. In total, Kd determination was performed twice.
(§4) The Ki was determined in duplicates following the SOP available from PerkinElmer/cisbio and as described in Section 2.10.
(§5) Saturation binding curves were processed and visualized in GraphPad Prism 8 (Nonlinear regression (curve fit), One site—Fit logIC50 was performed using GraphPad Prism version 8.2.1 for Windows, GraphPad Software, San Diego. CA, USA). Molecular docking was performed in GOLD 5.8.0 (CCDC, Cambridge, United Kingdom). […] Two-dimensional structures of all shown compounds were generated using ChemDraw version 19.0 (PerkinElmer, Waltham, MA, USA).

D1R [6] = target: T2, D1R; test: HTRF Ki determination at D1R; type: binding; settings: n = 6, ± SD; n.d. = not determinable (highest concentration 100 µM)
Procedure: as §1, §2, §4, §5

D2R [7] = target: T3, D2R; parameters: method as in PMID 35889317; settings: n = 6, ± SD; values from previous experiments; cited from earlier work
D2R [8] = target: T3, D2R; test: HTRF Ki determination at D2R; type: binding; settings: for Selectivity D1R/D2R (Ki fold-difference): Ki assumed ≥100 µM where n.d.
Procedure: as §1
The characterization of the D2R carrier cells is detailed in [42].
as §4, §5

D2R [9] = settings: radio-ligand binding, cited from earlier work
D1R [10] = settings: radio-ligand binding, cited from earlier work
D3R [11] = settings: radio-ligand binding, cited from earlier work
[12] = n = 6, ± SD, n.d. = not determinable (highest concentration 100 µM)
[13] = Table S3 D2like-selective dataset, ref ChEMBL [56,69,72-106]
[14] = Table S4 D3R-selective dataset, ref ChEMBL [53,56,62-118]

T1 sequence (P35462 whole entry): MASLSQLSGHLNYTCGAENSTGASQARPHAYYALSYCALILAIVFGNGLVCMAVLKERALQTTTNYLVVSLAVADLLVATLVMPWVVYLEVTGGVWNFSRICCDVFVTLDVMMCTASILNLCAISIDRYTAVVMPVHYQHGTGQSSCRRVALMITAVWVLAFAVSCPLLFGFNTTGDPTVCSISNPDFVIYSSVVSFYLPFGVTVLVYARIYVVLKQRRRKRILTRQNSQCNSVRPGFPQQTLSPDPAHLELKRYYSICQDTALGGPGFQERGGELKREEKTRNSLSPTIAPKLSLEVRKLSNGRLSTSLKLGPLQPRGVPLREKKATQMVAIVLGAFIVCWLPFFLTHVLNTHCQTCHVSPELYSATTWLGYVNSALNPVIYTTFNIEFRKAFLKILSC

| Normalized Decrease in Fluorescence (NDF) ± SD, D1R (D1R [2]) | Normalized Decrease in Fluorescence (NDF) ± SD, D3R (D3R [3]) | Selectivity D2R/D3R (Ki fold-difference) (D3R [5]) | Ki (D3R [5]; n = 6, ± SD) | Ki (D1R [6]) | Selectivity D1R/D2R (Ki fold-difference) (D2R [8]) | Compound | Normalized Decrease in Fluorescence (NDF) ± SD, D2R (D2R [4]) | Selectivity D1R/D3R (Ki fold-difference) (D3R [5]) | Ki (D2R [7]) | also measured |
| --- | --- | --- | --- | --- | --- | --- | --- | --- | --- | --- |
|  |  |  |  |  |  | O=C(NCCCCN1CCN(c2cccc(Cl)c2Cl)CC1)c1cc2ccccc2[nH]1 [C4 analogue] |  |  |  | D2R/D3R-selectivity fold-difference (D3R [1]): 45.7 |
| 3.47 ± 1.04 | 3.82 ± 1.32 |  |  |  |  | CN1CCc2cccc3c2[C@H]1Cc1ccc(O)c(O)c1-3 [Compound 1, apomorphine, reference compound] | 9.44 ± 5.97 |  |  |  |
| 1.78 ± 1.35 | 3.96 ± 1.10 | 12.2 | 380 ± 22 nM |  | >21.4 ^b | NS(=O)(=O)c1ccc(CCNCc2ccc(-c3cc(Cl)ccc3Cl)o2)cc1 [Compound 3] | 3.99 ± 2.58 |  | 4660 ± 2690 nM | Ki D1R (D1R [6]): inactive |
| 1.26 ± 0.64 | 2.65 ± 0.64 | 4.86 | 2250 ± 910 nM | 46900 ± 27400 nM | 4.28 | CCN(CCC(=O)Nc1cccc(OC)c1)Cc1ccccc1 [Compound 5] | 15.74 ± 18.15 | 20.8 | 11000 ± 4430 nM |  |
| 2.15 ± 1.16 | 4.21 ± 0.79 | 3.56 | 370 ± 280 nM | 7760 ± 4410 nM | 5.77 | O=C(CCN1CCN(c2ccccc2F)CC1)Nc1cccc(F)c1 [Compound 6] | 8.18 ± 3.62 | 20.7 | 1350 ± 630 nM |  |
| 1.57 ± 0.54 | 3.79 ± 0.70 | 4.11 | 680 ± 68 nM | 8330 ± 2170 nM | 3.00 | O[C@H](CNCCNc1ccc(C(F)(F)F)cn1)CSc1ccc(F)cc1 [Compound 7] | 10.85 ± 4.93 | 12.3 | 2780 ± 1060 nM |  |
| 1.71 ± 0.86 | 3.97 ± 0.78 | 13.8 | 24 ± 3 nM | 9460 ± 1180 nM | 28.6 | NC(=O)c1ccccc1OCCCN1CCN(c2ccccc2)CC1 [Compound 9] | 22.08 ± 6.62 | 395.1 | 330 ± 93 nM |  |
|  |  |  |  |  |  | SC79 |  |  |  | Ki (D2R [9]; [13]): 622 nM; Ki (D1R [10]; [13]): 10000 nM; Ki (D3R [11]; [13]): 6.11 nM |
|  |  |  |  |  |  | SC144 |  |  |  | Ki (D2R [9]; [13]): 38 nM; Ki (D1R [10]; [13]): 1300 nM; Ki (D3R [11]; [13]): 3 nM |
|  |  |  |  |  |  | SC236 |  |  |  | Ki (D2R [9]; [14]): 2320 nM; Ki (D1R [10]; [14]): 1270 nM; Ki (D3R [11]; [14]): 214 nM |

| Compound | Normalized Decrease in Fluorescence (NDF) ± SD, D1R (D1R [2]) | Normalized Decrease in Fluorescence (NDF) ± SD, D3R (D3R [3]) | Selectivity D2R/D3R (Ki fold-difference) (D3R [5]) | Ki (D3R [5]; n = 6, ± SD) | Ki (D1R [6]) | Selectivity D1R/D2R (Ki fold-difference) (D2R [8]) | Normalized Decrease in Fluorescence (NDF) ± SD, D2R (D2R [4]) | Selectivity D1R/D3R (Ki fold-difference) (D3R [5]) | Ki (D2R [7]) | also measured |
| --- | --- | --- | --- | --- | --- | --- | --- | --- | --- | --- |
| CN1CCN(C2Cc3ccc(O)cc3Sc3ccc(Cl)cc32)CC1 (centres unmarked) [Compound 2] | 5.46 ± 1.97 | 4.16 ± 1.08 | 1.66 | 3 ± 1 nM | 9 ± 2 nM | 1.95 | 40.41 ± 1.39 | 3.23 | 5 ± 2 nM |  |
| Oc1cccc(C(O)CNCc2cccc(Cl)c2Cl)c1 (centres unmarked) [Compound 4] | 0.90 ± 0.31 | 2.75 ± 0.61 | >27.2 ^b | 3680 ± 940 nM |  |  | 0.90 ± 0.39 | >27.2 ^b |  | Ki D1R (D1R [6]): inactive; also recorded: no determinable binding affinity; also recorded: no determinable binding affinities; Ki D2R (D2R [8]; [12]): inactive; also recorded: no determinable binding affinity; also recorded: no determinable binding affinities |
| COc1cc(CC[C@H](C)NCc2ccccc2)ccc1O [Compound 8] | 1.20 ± 0.59 | 2.63 ± 0.52 | >43.1 ^b | 2320 ± 920 nM |  |  | 1.10 ± 0.52 | >43.1 ^b |  | Ki D1R (D1R [6]): inactive; also recorded: no determinable binding affinity; also recorded: no determinable binding affinities; Ki D2R (D2R [8]; [12]): inactive; also recorded: no determinable binding affinity; also recorded: no determinable binding affinities |
| COc1ccccc1N1CCN(CCCCNC(=O)c2ccc(Cl)cc2)CC1 [Compound 10] | 2.59 ± 1.04 | 4.09 ± 1.07 | 263.7 | 2 ± 1 nM | 2380 ± 130 nM | 3.91 | 22.89 ± 8.41 | 1031.4 |  | Ki (D3R [5]): 2.3 nM; Ki (D2R [8]; [12]): 610 ± 85 nM |
